Test results reported in patent US5102905A, “Thienyl benzothienyl and dibenzothienyl compounds as inhibitors of aldose reductase” (Imperial Chemical Industries PLC, priority 1988, dated 1992).

Columns and labels:
[1] = target: T1, aldose reductase (Bos taurus, UniProt P16116); experiment: in vitro inhibition of partially purified aldose reductase isolated from bovine lenses (spectrophotometric); format: biochemical; conditions: read-out: IC50 in the in vitro test
T1 construct: isolated in known manner from bovine lenses; from tissue; host or cells: bovine lenses
Description: Thus, in a standard procedure partially purified aldose reductase is isolated in known manner from bovine lenses. The percentage inhibition of this enzyme's ability in vitro to catalyse the reduction of aldoses to polyhydric alcohols, and particularly to reduce glucose or sorbitol, caused by a test compound can then be determined using standard spectrophotometric methods.

[2] = target: T2, aldose reductase (Rattus norvegicus, UniProt P07943); experiment: in vivo inhibition of aldose reductase in streptozotocin diabetic rats (residual sorbitol levels in eye lenses and/or sciatic nerves); conditions: dosed daily for one, two or five days, read-out: ED50 in the in vivo test
T2 construct: the eye lenses and/or sciatic nerves are removed; from tissue; host or cells: rat eye lenses and/or sciatic nerves (in vivo, streptozotocin-diabetic rats)
Method: Rats are made diabetic (as evidenced by severe glucosuria being present) by dosing with streptozotocin. The animals are then dosed daily with the test compound for one, two or five days. The animals are then sacrificed 2-6 hours after the final dose and the eye lenses and/or sciatic nerves are removed. After a standard work-up procedure the residual sorbitol levels in each tissue are determined by gas liquid chromatography after conversion to the polytrimethylsilyl derivatives. Inhibition of aldose reductase in vivo can then be assessed by comparing the residual sorbitol levels in tissues from the dosed diabetic group of rats with those of an undosed group of diabetic rats and an undosed, normal group of rats.

- IC50 [1]: 54 nM
- ED50 [2]: 2.1 mg/kg
SMILES: O=[N+]([O-])CS(=O)(=O)c1cccs1 [Example 1, 2-(nitromethylsulphonyl)thiophene]
